Values joined by “and” are separate entries in the source; they are usually repeats but may differ in a detail not shown here. Equal entries are not always repeated. “Also recorded” adds a separate entry of the source.
Columns and labels:
Assay type in all cases: in vivo, mouse
NZM mice [1] = test: Urinalysis total urine protein (proteinuria) in NZM mice; details: Dex 1.5 mpk 3 × wk
Experimental: Urine samples were acid precipitated for total protein recovery and analysis. Samples for which enough urine remained were used for Uristix® leukouria analysis (MRL/lpr study only). Briefly, a standard protein solution was prepared from normal mouse sera and was used as a standard for mouse urinary protein assay by turbidity. Standard preparation was as follows: 0, 5, 10, 15, 20, 30, 40, and 50 μL of a 4 mg/mL mouse sera standard protein solution as provided in the kit were added in duplicate into two columns. PBS was added to individual wells to adjust the final volume to 50 μL. For urine sample preparation, urine samples were centrifuged at 9880×g for 3 minutes using a tabletop micro-centrifuge. Urine supernatant (1-50 μL) was added in duplicate. PBS was added to adjust the volume to 50 μL total. For the turbidity assay: 25 μL of 0.1 N HCl was added into blank columns and 250 μL of 3% sulfosalicyclic acid into the test columns. The microplate was incubated for 10 minutes at RT and plates were read using an ELISA reader with single beam at 450 nm. For the Uristix® strip assay, strips were laid out and labeled. Twenty microliters of urine were placed onto each test strip square and incubated for at least 30 seconds before the result was recorded. For all total urine analysis plate-based assays, values below the limit of detection set by the lowest point along the standard or set by the manufacturer were considered out of range and were not estimated, but assumed the lowest point along the standard curve for that particular assay.
(§1) Age mated, female, NZM or NZW/LacJ, mice were matured for the study of lupus nephritis for a total of 7 months or 210 days at which time urine was collected for proteinuria detection. Mice with 0.5-1.0 mg/ml of urine protein as determined by an optical density-based total protein precipitation assay and cross-checked for 30-300 mg/dl of protein as determined by a stick assay were considered proteinuria positive and selected for study entry. Groups were normalized to contain a Gaussian distribution of proteinuria positive animals (i.e., ⅓ low proteinuria, ⅓ medium, ⅓ high) then randomized between groups before ear marking and taking baseline measures including urine and serum collections. A total of five mice from the total population were randomly selected for baseline kidney histology evaluation. Treatments and tests for each group are as described in FIG. 12. Briefly, with a minimum of 10 mice per group, COMPOUND A was administered at 100 mg/kg or 55 mg/kg, both twice a day and orally. […] Vehicle included 3% DMSO, 10% Solutol and 87% PBS. […] End-stage lupus nephritis was evaluated by histopathology and scored by a board certified pathologist for the assessment of total renal damage in diseased animals using the scoring method described by Smith et al (Smith, Dong et al. 2007). […] Day-98 or “end of treatment/study” represents 310 days of age for the NZM animals.

anti-dsDNA antibodies = test: Serum anti-dsDNA ANA ELISA in NZM mice; details: Dex 1.5 mpk 3 × wk
Description: The measurement of anti-dsDNA and anti-Smith antigen antibodies was done by an in-house generated custom ELISA assay. Chromatin coated plates were purchased from Inova Diagnostics, Inc. Purified bovine thymus dsDNA (Sigma, St. Louis, […].) or purified bovine Smith antigen (GenWay, San Diego, Calif.) were used as coating antigen for the detection of anti-dsDNA and anti-Smith Ag antibodies respectively. Coated plates were washed with Borate Sulfate Saline (BSS) and blocked with BSS containing 1% Bovine Serum Albumin (BSA) and 0.1% Tween-20 detergent. Standard curves were generated using mouse anti-chromatin antibody (Sigma, 2B1) or 25 week old MRL/lpr serum. Mouse anti-dsDNA antibody (Abcam, Cambridge, Mass.), or mouse anti-Smith antigen antibody (Abcam) were used as standards for each assay. Secondary antibody was purchased from Abcam (goat anti-mouse pAb-HRP), the substrate was purchased from Rockland (Gilbertsville, Pa.) (TMB), and stop reaction buffer was generated using 1 mL of concentrated sulfuric acid into 20 mL of dH2O. Developed plates were read using a Victor-X4 spectrophotometer reading at […] with a reference wavelength of 570 nm. For all ANA ELISA assays, values below the limit of detection set by the lowest point along the standard or set by the manufacturer were considered out of range and were not estimated, but assumed the lowest point along the standard curve for that particular assay.
as §1

NZM mice [2] = test: Renal histopathology kidney IC-GN scoring in NZM mice
Experimental: For histological analyses, the left kidney and lung (NZM model only) from each animal was removed and fixed in 10% buffered neutral 10% formalin (EMD) for 48 hours on an orbital rocker at 25° C., then washed overnight with running dH2O and stored in 70% ethanol at 4° C. until ready to be processed. Kidney stains used for histological analyses included hematoxylin and eosin (H&E), Periodic Acid Schiff (PAS) and Trichrome stains (Wistar Institute, Philadelphia, Pa.). All 3 stained sections were used by the pathologist for scoring purposes. All histological scoring was performed blinded and by an independent board certified veterinary medical pathologist (Julie Engiles, VMD, DACVP; University of Pennsylvania). Multiple stains were used to determine score values. Images in FIGS. 8, 19 and 20 show worst affected area of section selected blindly by the pathologist.
Kidney IC-GN Scoring Method (Smith, Dong et al. 2007):
1. […]
2. […]
3. […]
4. […]
5. […]
6. […]
7. […]
Also considered effacement of the glomerular tuft by PAS positive, Trichrome negative material necrosis. • Glomerular sclerosis was defined by increased fibroplasia or fibrosis within the glomerular tuft or capsule. […] Pharmacodynamic (PD) Analysis
as §1

[3] = NZM individual mouse, Dex 1.5 mpk 3 × wk
[4] = NZM kidney score (grade 0-5), mean, Dex 1.5 mg/kg

## C[C@@H]1C[C@H]2[C@@H]3CCC4=CC(=O)C=C[C@]4(C)[C@@]3(F)[C@@H](O)C[C@]2(C)[C@@]1(O)C(=O)CO [Dex, dexamethasone, reference compound]
NZM mice [1]; NZM group mean
  I: Proteinuria, MEAN: 7.86 mg/mL
NZM mice [1]; NZM individual mouse
  I: Proteinuria: 8.43 mg/mL and 10.19 mg/mL (2×) and 11.02 mg/mL and 8.47 mg/mL and 0.35 mg/mL and 7.16 mg/mL and 0.55 mg/mL and 12.36 mg/mL and 9.89 mg/mL
anti-dsDNA antibodies; NZM group mean
  A: Anti-dsDNA IgG, MEAN: 42.7
anti-dsDNA antibodies; NZM individual mouse
  A: Anti-dsDNA IgG: 27.2 and 18.9 and 20.0 and 79.5 and 167.5 and 27.8 and 16.2 and 10.9 and 17.1
NZM mice [2]; [3]
  B: Glomerular Cellularity: ++ (‘++’ moderate (3)); also recorded: + (‘+’ mild (2)); also recorded: +++ (‘+++’ high (4))
  C: Glomerular Necrosis: ++ (‘++’ moderate (3)); also recorded: + (‘+’ mild (2)); also recorded: +++ (‘+++’ high (4))
  D: Glomerular Sclerosis: +++ (‘+++’ high (4)); also recorded: − (‘−’ no disease (1)); also recorded: ++ (‘++’ moderate (3)); also recorded: ++++ (‘++++’ severe disease (5))
  E: Interstitial Infiltration: ++ (‘++’ moderate (3)); also recorded: − (‘−’ no disease (1)); also recorded: +++ (‘+++’ high (4))
  F: Tubular Atrophy: +++ (‘+++’ high (4)); also recorded: − (‘−’ no disease (1))
  G: Interstitial Fibrosis: +++ (‘+++’ high (4)); also recorded: ++ (‘++’ moderate (3)); also recorded: − (‘−’ no disease (1))
  H: Vasculitis: + (‘+’ mild (2)); also recorded: − (‘−’ no disease (1)); also recorded: +++ (‘+++’ high (4))
NZM mice [2]; [4]
  Glomerular Cellularity: 3.0
  Glomerular Necrosis: 3.0
  Glomerulosclerosis: 3.42
  Interstitial Fibrosis: 2.71
  Interstitial Infiltration: 2.71
  Tubular Atrophy: 3.14
  Vasculitis: 2.42

— patent US9023853B2, “Janus kinase 2 (JAK2) inhibitor for the treatment of lupus” (Cephalon, Inc., priority 2010, dated 2015)
